For one test, the target named is T1, HCV NS5B S365A mutant (Hepatitis C virus genotype 1b, UniProt Q9WMX2, S2784A).
T1 construct: HCV NS5B C316Y or S365A mutant as indicated; expressed in transfected cells
As to the kind of experiment: Activity against HCV NS5B S365A mutant. The class given is cell-based. As to conditions: for Inhibition of HCV NS5B S3865A mutant: class symbol. The method, then:
(§1) The biological activity against HCV 1b, 1a, or 2a is indicated as being *, **, ***, or ****, which corresponds to EC50 ranges of EC50>1000 nM, 100 nM<EC50≦1000 nM, 10 nM<EC50≦100 nM, or EC50≦10 nM, respectively. The biological activity against HCV NS5B C316Y or S365A mutant is indicated as being […], which corresponds to EC50 ranges of EC50>1000 nM, 200 nM<EC50≦1000 nM, […], respectively.

A further test concerns the target T2, HCV NS5B C316Y mutant (Hepatitis C virus genotype 1b, UniProt Q9WMX2, C2735Y).
T2 construct: HCV NS5B C316Y or S365A mutant as indicated; expressed in transfected cells
As to the kind of experiment: Activity against HCV NS5B C316Y mutant. The test is classed as cell-based. The conditions noted are these: class symbol; C316Y mutant. The method, then: as §1

The subject of test [1] is 1b_Huh-Luc/Neo-ET cell line (bicistronic genotype 1b replicon in Huh 7 cells). Kind of test: HCV 1b replicon assay, luciferase readout. The class given is cell-based, HCV genotype 1b. The conditions noted are these: Hepatitis C virus. In outline:
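Huh 7 cells persistently carrying a bicistronic genotype 1b luciferase replicon, treated with compound in triplicate the day after plating and incubated 72 h. Luciferase activity measured by Bright-Glo and expressed as percent of untreated control; EC50 from four-parameter fit, repeated several times.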

Another test relates to HCV 2a. As to the kind of experiment: HCV 2a replicon assay. The class given is cell-based. The conditions noted are these: Hepatitis C virus; class symbol; cell marked (HCV genotype 2a replicon); read-out: Inhibition of HCV genotype 2a replicon. On the procedure: (§2) Compounds of the invention can inhibit multiple genotypes of HCV selected but not limited to 1a, 1h, 2a, 3a, and 4a. The EC50s are measured in the corresponding replicon assays that are similar to HCV 1b replicon assay as described above.
as §1
Background: Replicon systems follow genome replication, usually without infectious particles.

The test system of another test is HCV 1a. As to the kind of experiment: HCV 1a replicon assay. The test is classed as cell-based. The conditions noted are these: Hepatitis C virus; class symbol; cell marked (HCV genotype 1a replicon); read-out: Inhibition of HCV genotype 1a replicon. The method, then: as §2, §1
Setting [2] is: Huh-7, 1b_Huh-Luc/Neo-ET cell line, read-out: EC50, half-maximal inhibition of HCV 1b replication.
Where [3] appears, read: Huh-7, class symbol, HCV genotype 1b replicon, read-out: Inhibition of HCV genotype 1b replicon.

pEC50: −log10 of the molar value. Like-named read-outs stand apart in the source and are kept apart here.

T2 sequence (Q9WMX2 2420-3010 C2735Y): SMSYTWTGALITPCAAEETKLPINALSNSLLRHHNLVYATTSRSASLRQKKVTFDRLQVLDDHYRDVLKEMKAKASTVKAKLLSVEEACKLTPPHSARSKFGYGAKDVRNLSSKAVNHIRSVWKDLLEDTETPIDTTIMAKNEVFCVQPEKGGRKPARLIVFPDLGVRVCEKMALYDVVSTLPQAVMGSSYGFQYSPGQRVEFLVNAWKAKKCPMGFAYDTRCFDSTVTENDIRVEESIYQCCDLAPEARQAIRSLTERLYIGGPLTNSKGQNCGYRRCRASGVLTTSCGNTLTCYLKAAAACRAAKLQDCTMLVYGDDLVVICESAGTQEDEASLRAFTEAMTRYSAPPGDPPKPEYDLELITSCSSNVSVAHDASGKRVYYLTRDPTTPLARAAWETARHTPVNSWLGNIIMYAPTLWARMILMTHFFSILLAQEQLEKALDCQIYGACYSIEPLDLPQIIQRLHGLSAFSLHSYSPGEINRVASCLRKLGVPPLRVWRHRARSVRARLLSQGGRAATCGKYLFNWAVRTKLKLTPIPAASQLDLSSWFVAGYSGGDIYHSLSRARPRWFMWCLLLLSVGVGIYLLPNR
T1 sequence (Q9WMX2 2420-3010 S2784A): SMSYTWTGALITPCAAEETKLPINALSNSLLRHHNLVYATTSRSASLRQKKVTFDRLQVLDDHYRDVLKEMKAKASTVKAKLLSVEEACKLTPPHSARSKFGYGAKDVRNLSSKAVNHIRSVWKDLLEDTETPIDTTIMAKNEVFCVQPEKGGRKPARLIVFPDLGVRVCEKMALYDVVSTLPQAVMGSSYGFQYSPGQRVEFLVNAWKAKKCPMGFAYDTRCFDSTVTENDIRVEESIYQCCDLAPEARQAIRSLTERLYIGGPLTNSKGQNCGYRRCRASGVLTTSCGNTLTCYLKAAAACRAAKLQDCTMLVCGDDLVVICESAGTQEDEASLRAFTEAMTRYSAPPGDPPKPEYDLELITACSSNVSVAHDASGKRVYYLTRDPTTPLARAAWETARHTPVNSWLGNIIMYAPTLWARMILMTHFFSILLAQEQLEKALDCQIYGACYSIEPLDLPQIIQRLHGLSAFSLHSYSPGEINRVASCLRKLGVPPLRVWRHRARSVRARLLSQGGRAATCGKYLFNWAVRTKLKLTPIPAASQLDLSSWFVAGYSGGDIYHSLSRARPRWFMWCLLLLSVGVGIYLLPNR

For the compound `CNC(=O)c1c(-c2ccc(F)cc2)oc2cc3c(cc12)C(C)N(CCS(C)(=O)=O)CCN3S(C)(=O)=O` (stereo not shown) [Compound B156], the “Inhibition of HCV NS5B S3865A mutant” value on HCV NS5B S365A mutant is recorded as “†††”. In addition, the “Inhibition of HCV N55B C316Y mutant” value at HCV NS5B C316Y mutant is on record as “†††”. Further, the pEC50 in test [1] (setting [2]) and in test [1] (setting [3]) was 7.00 to 8.00 throughout.
As for `CNC(=O)c1c(-c2ccc(Oc3ccc(F)cc3)cc2)nn2cc3c(cc12)C(C)CCCN3S(C)(=O)=O` (stereo not shown) [Compound B76], in the test with HCV 2a, the pEC50 was 6.00 to 7.00.
As to `CNC(=O)c1c(-c2ccc(Oc3ccc(Cl)cc3)cc2)nn2cc3c(cc12)C(C)CCCN3S(C)(=O)=O` (stereo not shown) [Compound B99], in the test on HCV 2a, the pEC50 is 6.00 to 7.00.
Consider `CNC(=O)c1c(-c2ccc(F)cc2)oc2cc3c(cc12)C(O)C(C)CCN3S(C)(=O)=O` (stereo not shown) [Compound B78], for which the pEC50 in the test with HCV 2a was 6.00 to 7.00.
Consider `CNC(=O)c1c(-c2ccc(F)cc2)oc2cc3c(cc12)C(C)CCN3S(C)(=O)=O` (stereo not shown) [Compound B10], for which the pEC50 in the test with HCV 2a was 6.00 to 7.00.
Take `CNC(=O)c1c(-c2ccc(F)cc2)oc2cc3c(cc12)[C@H](C)n1nncc1CN3S(C)(=O)=O` (single isomer, unassigned) [Compound B169]: the “Inhibition of HCV NS5B S3865A mutant” value on HCV NS5B S365A mutant is “†††”. The “Inhibition of HCV N55B C316Y mutant” value on HCV NS5B C316Y mutant is “†††”. In addition, the pEC50 in test [1] (setting [2]) is at least 8.00; in test [1] (setting [3]), over 8.00.
Consider `CNC(=O)c1c(-c2ccc(Oc3ccc(F)cc3)cc2)oc2cc3c(cc12)[C@H](C)O[C@H](CO)CN3S(C)(=O)=O` [Compound B232], for which the “Inhibition of HCV NS5B S3865A mutant” value on HCV NS5B S365A mutant is “†††”. In addition, at HCV NS5B C316Y mutant, the “Inhibition of HCV N55B C316Y mutant” value is listed as “†††”. Further, the pEC50 is at least 8.00 in test [1] (setting [2]) and over 8.00 in test [1] (setting [3]).
Regarding `CNC(=O)c1c(-c2ccc(F)cc2)nn2cc3c(cc12)OCCCN3S(C)(=O)=O` [Compound B70], in the test on HCV 2a, the pEC50 was under 6.00.
Same read-out and setting: with `CNC(=O)c1c(-c2ccc(F)cc2)nn2cc3c(cc12)C(=O)CCCN3S(C)(=O)=O` [Compound B69] the figure was under 6.00; with `CS(=O)(=O)N1CCCCc2cc3c(-c4nnn[nH]4)c(-c4ccc(F)cc4)oc3cc21` [Compound B65], under 6.00; with `C=C1CCCN(S(C)(=O)=O)c2cc3oc(-c4ccc(F)cc4)c(C(=O)NC)c3cc21` [Compound B61], under 6.00.
Take `CS(=O)(=O)N1CCCCc2cc3c(-c4ncc[nH]4)c(-c4ccc(F)cc4)oc3cc21` [Compound B67]: the pEC50 is 6.00 to 6.70 on HCV NS5B S365A mutant; at least 8.00 in test [1] (setting [2]); 8.28 in test [1] (Huh-7, numeric value, HCV genotype 1b replicon, read-out: Inhibition of HCV genotype 1b replicon (EC50)). The “Inhibition of HCV N55B C316Y mutant” value on HCV NS5B C316Y mutant is listed as “†††”.
Consider `CNC(=O)c1c(-c2ccc(F)cc2)nn2cc3c(cc12)C(O)CCCN3S(C)(=O)=O` (stereo not shown) [Compound B73], for which the pEC50 in the test with HCV 2a is under 6.00.
Turning to `[2H]C([2H])([2H])NC(=O)c1c(-c2ccc(F)cc2)oc2cc3c(cc12)CCCCN3S(C)(=O)=O` [Compound B112], the pEC50 (with HCV 1a; in test [1] (setting [2])) was 7.00 to 8.00 each time.
On to `CNC(=O)c1c(-c2ccc(F)cc2)oc2cc3c(cc12)C=C(C)CCN3S(C)(=O)=O` [Compound B79], for which, in the test on HCV 2a, the pEC50 is under 6.00.
On to `[2H]C([2H])([2H])NC(=O)c1c(-c2ccc(Oc3ccc(F)cc3)cc2)oc2cc3c(cc12)C(C)OCCN3S(C)(=O)=O` (stereo not shown) [Compound B119], for which the pEC50 (in the test on HCV 1a; in test [1] (setting [2])) was 7.00 to 8.00 throughout.
On to `CCCN1CCN(S(C)(=O)=O)c2cc3oc(-c4ccc(F)cc4)c(C(=O)NC)c3cc2C1C` (stereo not shown) [Compound B137], for which the pEC50 (with HCV 1a; in test [1] (setting [2])) was 7.00 to 8.00 throughout.
As to `CNC(=O)c1c(-c2ccc(F)cc2)oc2cc3c(cc12)C(C)N(CCc1ccc(F)cc1)CCN3S(C)(=O)=O` (stereo not shown) [Compound B155], the pEC50 (in the test with HCV 1a; in test [1] (setting [2])) was 7.00 to 8.00 in each case.
In the case of `CNC(=O)c1c(-c2ccc(F)cc2)oc2cc3c(cc12)C(C)=CCN3S(C)(=O)=O` [Compound B11], the pEC50 in the test on HCV 2a is under 6.00.
The same measure, in the same setting: with `CNC(=O)c1c(-c2ccc(Oc3cccc(Cl)c3)cc2)nn2cc3c(cc12)C(C)CCCN3S(C)(=O)=O` (stereo not shown) [Compound B98] the figure was 6.00 to 7.00.
On to `CNC(=O)c1c(-c2ccc(Oc3ccc(F)cc3)cc2)oc2cc3c(cc12)[C@@H]1C[C@@H]1CCN3S(C)(=O)=O` (single isomer, unassigned) [Compound B146], for which the pEC50 (in the test with HCV 1a; in test [1] (setting [2])) was 7.00 to 8.00 in each case.
`CNC(=O)c1c(-c2ccc(F)cc2)oc2cc3c(cc12)C(C)N(C(=O)OCc1ccccc1)CCN3S(C)(=O)=O` (stereo not shown) [Compound B111]: the pEC50 (with HCV 1a; in test [1] (setting [2])) was 7.00 to 8.00 in each case.
`CNC(=O)c1c(-c2ccc(F)cc2)oc2cc3c(cc12)C(=O)N(C)CCN3S(C)(=O)=O` [Compound B106]: the pEC50 (in the test with HCV 1a; in test [1] (setting [2])) was 7.00 to 8.00 each time.
`CS(=O)(=O)N1CCCCc2cc3c(C4=NCCN4)c(-c4ccc(F)cc4)oc3cc21` [Compound B66]: the pEC50 in the test on HCV 2a was under 6.00.
As to `C=C1c2cc3c(C(=O)NC)c(-c4ccc(F)cc4)oc3cc2N(S(C)(=O)=O)CCC1(C)C` [Compound B101], the pEC50 (in test [1] (setting [2]); in the test with HCV 2a) was 7.00 to 8.00 throughout.
On to `C=C1CCCN(S(C)(=O)=O)c2cn3nc(-c4ccc(F)cc4)c(C(=O)NC)c3cc21` [Compound B68], for which, in the test with HCV 2a, the pEC50 is under 6.00.
The same measure, in the same setting: with `CNC(=O)c1c(-c2ccc(F)cc2)nn2cc3c(cc12)C(C)=CCCN3S(C)(=O)=O` [Compound B72] the figure was under 6.00.
For the compound `CNC(=O)c1c(-c2ccc(F)cc2)oc2cc3c(cc12)C(C)N(CC1CC1)CCN3S(C)(=O)=O` (stereo not shown) [Compound B108], the pEC50 (in the test with HCV 1a; in test [1] (setting [2])) was 7.00 to 8.00 in each case.
As to `CNC(=O)c1c(-c2ccc(Oc3ccc(F)cc3)cc2)oc2cc3c(cc12)C(C)N(C)CCN3S(C)(=O)=O` (stereo not shown) [Compound B151], the pEC50 (with HCV 1a; in test [1] (setting [2])) was 7.00 to 8.00 each time.
In the case of `CNC(=O)c1c(-c2ccc(F)cc2)oc2cc3c(cc12)C(OC)CCCN3S(C)(=O)=O` (stereo not shown) [Compound B71], the pEC50 (in test [1] (setting [2]); with HCV 2a) was 7.00 to 8.00 throughout.
Take `CNC(=O)c1c(-c2ccc(F)cc2)oc2cc3c(cc12)C(=O)C(C)(C)CCN3S(C)(=O)=O` [Compound B100]: the pEC50 (in test [1] (setting [2]); with HCV 2a) was 7.00 to 8.00 in each case.
Regarding `CCC1CCCN(S(C)(=O)=O)c2cc3oc(-c4ccc(F)cc4)c(C(=O)NC)c3cc21` (stereo not shown) [Compound B63], the pEC50 (in test [1] (setting [2]); in the test on HCV 2a) was 7.00 to 8.00 throughout.
Take `C=CC1CCCN(S(C)(=O)=O)c2cc3oc(-c4ccc(F)cc4)c(C(=O)NC)c3cc21` (stereo not shown) [Compound B60]: the pEC50 (in test [1] (setting [2]); in the test with HCV 2a) was 7.00 to 8.00 in each case.
For the compound `CNC(=O)c1c(-c2ccc(Oc3ccc(F)cc3)cc2)oc2cc3c(cc12)C(C)OCCN3S(C)(=O)=O` (stereo not shown) [Compound B116], the pEC50 (in the test on HCV 1a; in test [1] (setting [2])) was 7.00 to 8.00 throughout.
For `CS(=O)(=O)N1CCCCc2cc3c(C(=O)NC#N)c(-c4ccc(F)cc4)oc3cc21` [Compound B64], in the test with HCV 2a, the pEC50 is under 6.00.
In the case of `CNC(=O)c1c(-c2ccc(F)cc2)oc2cc3c(cc12)C(C)=CCCN3S(C)(=O)=O` [Compound B62], the pEC50 in the test on HCV 2a was under 6.00.
Same read-out and setting: under `CNC(=O)c1c(-c2ccc(F)cc2)nn2cc3c(cc12)C=CCCN3S(C)(=O)=O` [Compound B74] stands under 6.00.
Take `CNC(=O)c1c(-c2ccc(F)cc2)oc2cc3c(cc12)C(C)N(C(=O)OC)CCN3S(C)(=O)=O` (stereo not shown) [Compound B109]: the pEC50 (in the test with HCV 1a; in test [1] (setting [2])) was 7.00 to 8.00 in each case.
`CNC(=O)c1c(-c2ccc(F)cc2)oc2cc3c(cc12)C(=O)C(C)CCN3S(C)(=O)=O` (stereo not shown) [Compound B77]: the pEC50 in the test with HCV 2a is 6.00 to 7.00.

The values are drawn from US20130302282A1, “Inhibitors of Hepatitis C Virus” (priority 2010, published 2013).
